# Laboratory results taken from patent US20040138064A1, “Adjuvant for water soluble herbicides” (priority 2002, published 2004).
# Assays:
# grain sorghum (Milo) = assay: Greenhouse spray of glyphosate (0.13 lb AI per 10 gallons per acre) with or without sulfate adjuvant on grain sorghum; format: in vivo, Sorghum bicolar; conditions: for Plant Height Sorghum % Control 15 DAT / Plant Weight Sorghum % Control 15 DAT: no sulfate adjuvant
# Excerpt: (§1) The formulations shown in Table 3 and Table 4 are either glyphosate and ammonium sulfate (AMS) or glyphosate and isopropylammonium sulfate (MIPAS). In Table 3 and Table 4, 0 ppm hardness refers to the absence of minerals such as calcium ions and 342 ppm hardness refers to the amount of calcium ions present. The moles of sulfate indicate the amount of isopropylammonium sulfate or ammonium sulfate per liter. The aqueous solution was applied to the plots at a level of 10 gallons per acre. The two tested plants were soybeans (Glycine max) and grain sorghum (Milo), (Sorghum bicolar).
# (§2) The herbicidal solutions were applied in a greenhouse using a Spray chamber with an FF nozzle having a nozzle size 8001EVS. The spray apparatus was operated at 38 psi and the height of the nozzle was 9.75 inches. The watering frequency was every 6 hours for 5 minutes. The daytime temperature was 85° F. and the nighttime temperature was 70° F. with a 16 hour day. The soybean was 4-4.5 inches with one trifoliate leaf present when the herbicidal solution was applied. The grain sorghum was 4-8 inches with 3-4 leaves present when the herbicidal solution was applied.
# (§3) The Figures show values of moles of ammonium sulfate or isopropylammonium sulfate per liter. The actual solution used on the grain sorghum contained 0.13 pounds of glyphosate active ingredient per 10 gallons of water per acre. The actual solution used on the soybean contained 0.75 pounds glyphosate active ingredient per 10 gallons of water per acre.
# (§4) FIGS. 5 and 9 show the height of sorghum and soybean, respectively, when distilled water was used, as a percent reduction of the height of the control after 15 days. FIGS. 6 and 10 show the height of sorghum and soybean, respectively, when hard water was used, as a percent reduction of the height of the control after 15 days. FIGS. 7 and 11 show the fresh weight of sorghum and soybean, respectively, when distilled water was used, as a percent reduction of the weight of the control after 15 days. FIGS. 8 and 12 show the fresh weight of sorghum and soybean, respectively, when hard water was used, as a percent reduction of the weight of the control after 15 days. The plants were harvested and weighed to determine the fresh weight.
# (§5) Bartlett's test (commonly used in the agricultural business) was used to statistically analyze the results.
# Velvetleaf = assay: Cabinet spray of glyphosate (about 0.63 lb AI per 10 gallons per acre) with or without sulfate adjuvant on velvetleaf; format: in vivo, ipomoea hederacea (L.) jacq. Var. integriuscula gray; conditions: for Velvet Leaf % Control 7 DAT / Velvet Leaf % Control 14 DAT / Velvet Leaf % Control 21 DAT / Velvet Leaf Fresh Weight 21 DAT: no sulfate adjuvant
# Excerpt: as §1, with “1” for “3”, “2” for “4”, “2,” for “4,”, “1000” for “342”, “Morningglory Entireleaf ([…])” for “soybeans (Glycine max)”, “Velvetleaf ([…]). The term YBI in the Figures indicates the adjuvant was isopropylammonium sulfate.” for “grain sorghum (Milo), (Sorghum bicolar).”
# (§6) The herbicidal solutions were applied in a cabinet using a Lodrift nozzle having a nozzle size 110015. The spray apparatus was operated at 40 psi using air as the propellant and water as a carrier. The boom height was 13.5 inches. The ground speed was 2.6 miles per hour. The morningglory was at the three-leaf stage when the herbicidal solution was applied. The velvetleaf was 4-6 inches in height when the herbicidal solution was applied. The normalized spray volume was 10 gallons per acre.
# (§7) The Figures show values of pounds of ammonium sulfate or isopropylammonium sulfate per hundred gallons. The actual solutions used were nominally ten gallons of the sulfate in water, e.g. one-tenth of the sulfate per hundred gallons of carrier, with twenty fluid ounces of glyphosate. Twenty fluid ounces of glyphosate contains about 0.63 pounds of glyphosate active ingredient (AI) reported as the isopropylammonium. The glyphosate active ingredient (AI) as the isopropylammonium salt is related to the glyphosate acid equivalents (AE) by the formula: (0.7142)(AI)=AE.
# (§8) FIGS. 1 and 3 show the fresh weight of morningglory and velvetleaf, respectively. The fresh weight was determined by cutting the stem of the plant flush with the ground and weighing the plant. The weight is reported as grams per pot since a single plant was grown in each pot. FIGS. 2 and 4 show the percent control at 7, 14 and 21 days for morningglory and velvetleaf, respectively.
# as §5
# Morningglory Entireleaf = assay: Cabinet spray of glyphosate (about 0.63 lb AI per 10 gallons per acre) with or without sulfate adjuvant on morningglory; format: in vivo, abutilon theophrasti medik; conditions: for Morning Glory % Control 7 DAT / Morning Glory % Control 14 DAT / Morning Glory % Control 21 DAT / Morning Glory Fresh Weight 21 DAT: no sulfate adjuvant
# Excerpt: as §1, with “1” for “3”, “2” for “4”, “2,” for “4,”, “1000” for “342”, “Morningglory Entireleaf ([…])” for “soybeans (Glycine max)”, “Velvetleaf ([…]). The term YBI in the Figures indicates the adjuvant was isopropylammonium sulfate.” for “grain sorghum (Milo), (Sorghum bicolar).”
# as §6, §7, §8
# soybeans = assay: Greenhouse spray of glyphosate (0.75 lb AI per 10 gallons per acre) with or without sulfate adjuvant on soybean; format: in vivo, Glycine max; conditions: for height reduction of soybean, statistical comparison with the no adjuvant case / weight reduction of soybean, statistical comparison with the no adjuvant case: 0 ppm water hardness and 342 ppm water hardness; for Plant Height Soybean % Control 15 DAT / Plant Weight Soybean % Control 15 DAT: no sulfate adjuvant
# Excerpt: as §1, §2, §3, §4
# [1] = 342 ppm of water hardness, three highest concentrations of MIPAS, two higher concentrations of AMS
# [2] = water hardness 0 ppm, AMS at the two highest concentrations, all MIPAS concentrations
# [3] = water hardness 1000 ppm, higher concentrations of AMS, all MIPAS
# [4] = water hardness 1000 ppm, two higher concentrations of AMS, all the MIPAS treatments
structure (smiles),measurement,setting,value
"CC(C)N.CC(C)N.O=S(=O)(O)O [MIPAS, isopropylammonium sulfate]","fresh weight of sorghum, statistical comparison with the no adjuvant case (Bartlett's test)",grain sorghum (Milo); 0 ppm water hardness,not significantly different from the no adjuvant case
same,"height reduction of sorghum, statistical comparison with the no adjuvant case (Bartlett's test)",grain sorghum (Milo); 0 ppm water hardness,not significantly different from the no adjuvant case
same,"fresh weight of sorghum, statistical comparison of MIPAS with AMS (Bartlett's test)",grain sorghum (Milo); 342 ppm of water hardness,not significantly different from each other
same,"height reduction of sorghum, statistical comparison of MIPAS with AMS (Bartlett's test)",grain sorghum (Milo); 342 ppm of water hardness,not significantly different than the AMS results
same,"height reduction of sorghum, statistical comparison with the no adjuvant case (Bartlett's test)",grain sorghum (Milo); 342 ppm of water hardness,significantly different than the no adjuvant case
same,"fresh weight of sorghum, statistical comparison with the no adjuvant case (Bartlett's test)",grain sorghum (Milo); [1],significantly different than the no adjuvant case
same,"fresh weight of velvetleaf, statistical comparison with no adjuvant (Bartlett's test)",Velvetleaf; water hardness 0 ppm,no statistical difference
same,"height reduction of velvetleaf, statistical comparison with the no adjuvant case (Bartlett's test)",Velvetleaf; water hardness 0 ppm and 1000 ppm,statistically different from the no adjuvant case
same,"height reduction of velvetleaf, statistical comparison of MIPAS with AMS (Bartlett's test)","Velvetleaf; water hardness 0 ppm, high MIPAS concentrations",statistically different from the AMS results
same,"fresh weight of velvetleaf, statistical comparison of MIPAS with AMS (Bartlett's test)",Velvetleaf; water hardness 1000 ppm,no statistically significant difference
same,"height reduction of velvetleaf, statistical comparison of MIPAS with AMS (Bartlett's test)",Velvetleaf; water hardness 1000 ppm,not statistically significant
same,"fresh weight of morningglory, statistical comparison of MIPAS with AMS (Bartlett's test)",Morningglory Entireleaf; water hardness 0 ppm,no statistically significant difference
same,"fresh weight of morningglory, statistical comparison with the no adjuvant case (Bartlett's test)",Morningglory Entireleaf; water hardness 0 ppm,statistical difference
same,"height reduction of morningglory, statistical comparison of MIPAS with AMS (Bartlett's test)",Morningglory Entireleaf; water hardness 0 ppm,no statistically significant difference
same,"height reduction of morningglory, statistical comparison with the no adjuvant case (Bartlett's test)",Morningglory Entireleaf; [2],statistically different from the no adjuvant case
same,"fresh weight of morningglory, statistical comparison of MIPAS with AMS (Bartlett's test)",Morningglory Entireleaf; water hardness 1000 ppm,no statistically significant difference
same,"height reduction of morningglory, statistical comparison of MIPAS with AMS (Bartlett's test)",Morningglory Entireleaf; water hardness 1000 ppm,not statistically significant
same,"fresh weight of morningglory, statistical comparison with the no adjuvant case (Bartlett's test)",Morningglory Entireleaf; [3],statistically different from the no adjuvant case
same,"height reduction of morningglory, statistical comparison with the no adjuvant case (Bartlett's test)",Morningglory Entireleaf; [4],statistically different from the no adjuvant case
same,"height reduction of soybean, statistical comparison with the no adjuvant case",soybeans,not significantly different from the no adjuvant case
same,"weight reduction of soybean, statistical comparison with the no adjuvant case",soybeans,not significantly different from the no adjuvant case
"N.N.O=S(=O)(O)O [AMS, ammonium sulfate]","fresh weight of sorghum, statistical comparison with the no adjuvant case (Bartlett's test)",grain sorghum (Milo); 0 ppm water hardness,not significantly different from the no adjuvant case
same,"height reduction of sorghum, statistical comparison with the no adjuvant case (Bartlett's test)",grain sorghum (Milo); 0 ppm water hardness,not significantly different from the no adjuvant case
same,"fresh weight of sorghum, statistical comparison with the no adjuvant case (Bartlett's test)",grain sorghum (Milo); [1],significantly different than the no adjuvant case
same,"fresh weight of velvetleaf, statistical comparison with no adjuvant (Bartlett's test)",Velvetleaf; water hardness 0 ppm,no statistical difference
same,"fresh weight of velvetleaf, statistical comparison with no adjuvant (Bartlett's test)","Velvetleaf; water hardness 1000 ppm, MIPAS at the two higher concentrations",no statistical difference
same,"height reduction of morningglory, statistical comparison with the no adjuvant case (Bartlett's test)",Morningglory Entireleaf; [2],statistically different from the no adjuvant case
same,"fresh weight of morningglory, statistical comparison with the no adjuvant case (Bartlett's test)",Morningglory Entireleaf; [3],statistical difference
same,"height reduction of morningglory, statistical comparison with the no adjuvant case (Bartlett's test)",Morningglory Entireleaf; [4],statistically different from the no adjuvant case
same,"height reduction of soybean, statistical comparison with the no adjuvant case",soybeans,not significantly different from the no adjuvant case
same,"weight reduction of soybean, statistical comparison with the no adjuvant case",soybeans,not significantly different from the no adjuvant case
"O=C(O)CNCP(=O)(O)O [Glyphosate, N-phosphonomethylglycine]",Plant Height Sorghum % Control 15 DAT,grain sorghum (Milo); water hardness 0 ppm,41.04%
same,Plant Weight Sorghum % Control 15 DAT,grain sorghum (Milo); water hardness 0 ppm,59.86%
same,Plant Height Sorghum % Control 15 DAT,grain sorghum (Milo); water hardness 342 ppm,14.55%
same,Plant Weight Sorghum % Control 15 DAT,grain sorghum (Milo); water hardness 342 ppm,40.97%
same,Velvet Leaf % Control 7 DAT,Velvetleaf; water hardness 0 ppm,52%
same,Velvet Leaf % Control 14 DAT,Velvetleaf; water hardness 0 ppm,84%
same,Velvet Leaf % Control 21 DAT,Velvetleaf; water hardness 0 ppm,88%
same,Velvet Leaf Fresh Weight 21 DAT,Velvetleaf; water hardness 0 ppm,1.1 grams per pot
same,Velvet Leaf % Control 7 DAT,Velvetleaf; water hardness 1000 ppm,48%
same,Velvet Leaf % Control 14 DAT,Velvetleaf; water hardness 1000 ppm,56%
same,Velvet Leaf % Control 21 DAT,Velvetleaf; water hardness 1000 ppm,52%
same,Velvet Leaf Fresh Weight 21 DAT,Velvetleaf; water hardness 1000 ppm,1.8 grams per pot
same,Morning Glory % Control 7 DAT,Morningglory Entireleaf; water hardness 0 ppm,56%
same,Morning Glory % Control 14 DAT,Morningglory Entireleaf; water hardness 0 ppm,56%
same,Morning Glory % Control 21 DAT,Morningglory Entireleaf; water hardness 0 ppm,50%
same,Morning Glory Fresh Weight 21 DAT,Morningglory Entireleaf; water hardness 0 ppm,1.4 grams per pot
same,Morning Glory % Control 7 DAT,Morningglory Entireleaf; water hardness 1000 ppm,51%
same,Morning Glory % Control 14 DAT,Morningglory Entireleaf; water hardness 1000 ppm,48%
same,Morning Glory % Control 21 DAT,Morningglory Entireleaf; water hardness 1000 ppm,46%
same,Morning Glory Fresh Weight 21 DAT,Morningglory Entireleaf; water hardness 1000 ppm,1.9 grams per pot
same,Plant Height Soybean % Control 15 DAT,soybeans; water hardness 0 ppm,47.55%
same,Plant Weight Soybean % Control 15 DAT,soybeans; water hardness 0 ppm,75.60%
same,Plant Height Soybean % Control 15 DAT,soybeans; water hardness 342 ppm,47.77%
same,Plant Weight Soybean % Control 15 DAT,soybeans; water hardness 342 ppm,59.20%
